# Measurements as given in article PMC5733478, “A Non-imaging High Throughput Approach to Chemical Library Screening at the Unmodified Adenosine-A3 Receptor in Living Cells” (Frontiers in Pharmacology, 2017).
# Where a name gives a salt, the structure may show the parent alone.
# Target: T1, human A3AR (Homo sapiens, UniProt P0DMS8)
# T1 construct: expressed in transfected cells
# T1 sequence (P0DMS8 1-318): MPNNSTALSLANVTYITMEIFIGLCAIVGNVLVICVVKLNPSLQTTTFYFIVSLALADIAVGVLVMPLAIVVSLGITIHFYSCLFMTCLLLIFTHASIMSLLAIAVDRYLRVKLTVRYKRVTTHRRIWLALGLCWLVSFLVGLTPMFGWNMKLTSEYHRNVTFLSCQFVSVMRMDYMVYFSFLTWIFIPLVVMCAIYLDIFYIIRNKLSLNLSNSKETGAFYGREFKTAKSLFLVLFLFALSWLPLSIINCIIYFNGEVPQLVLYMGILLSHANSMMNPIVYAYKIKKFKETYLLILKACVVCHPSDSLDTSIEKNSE
# Test: LOPAC library primary screen: single concentration (10 μM) inhibition of 25 nM CA200645 binding, PHERAstar FS
# Conditions: not given
row,SMILES,% 25 nM CA200645 binding [%]
1,NCC(O)(CS(=O)(=O)O)c1ccc(Cl)cc1 (stereo not drawn) [2-Hydroxysaclofen],92.7 ± 0.2
2,Cc1[nH]c2ccc(O)cc2c1CCN.O=C(O)/C=C\C(=O)O [2-Methyl-5-hydroxytryptamine maleate],104.7 ± 14.7
3,Cc1cn(C2CC(N=[N+]=[N-])C(CO)O2)c(=O)[nH]c1=O (stereo not drawn) [3'-Azido-3'-deoxythymidine],82.3 ± 18.1
4,"O=c1oc(Cl)c(Cl)c2ccccc12 [3,4-Dichloroisocoumarin]",95.8 ± 9.3
5,"O=C(O)Cc1ccc(O)c(O)c1 [3,4-Dihydroxyphenylacetic acid]",97.0 ± 9.9
6,"O=[N+]([O-])c1cc(O)c(O)c([N+](=O)[O-])c1 [3,5-Dinitrocatechol]",100.0 ± 11.8
7,"C#CCn1c(=O)c2c(ncn2C)n(C)c1=O [3,7-Dimethyl-1-propargylxanthine]",94.8 ± 1.8
8,NCCCS(=O)(=O)O.[Na] [3-Amino-1-propanesulfonic acid sodium],96.5 ± 4.6
9,N#CCCN.N#CCCN.O=C(O)/C=C/C(=O)O [3-Aminopropionitrile fumarate],91.9 ± 6.3
10,NCCCP(=O)(O)O [3-Aminopropylphosphonic acid],90.0 ± 2.1
11,O=[N+]([O-])c1cccc2c(Br)n[nH]c12 [3-Bromo-7-nitroindazole],81.2 ± 6.7
12,N[C@@H](Cc1ccc(O)c(I)c1)C(=O)O [3-Iodo-L-tyrosine],96.8 ± 8.8
13,CC(C)Cn1c(=O)n(C)c(=O)c2[nH]cnc21 [3-Isobutyl-1-methylxanthine],98.0 ± 7.1
14,Nc1c[n+](N2CCOCC2)no1.[Cl-] [3-Morpholinosydnonimine hydrochloride],114.0 ± 15.4
15,O=C(O)CC[N+](=O)[O-] [3-Nitropropionic acid],111.3 ± 13.2
16,Nc1nccc2c1ncn2[C@@H]1O[C@H](CO)[C@@H](O)[C@H]1O [3-deazaadenosine],93.8 ± 11.9
17,CCCn1c(=O)[nH]c(=O)c2nc[nH]c21 [3-n-Propylxanthine],101.0 ± 10.1
18,"Nc1ccc2c3c(cccc13)C(=O)NC2=O [4-Amino-1,8-naphthalimide]",95.4 ± 12.1
19,Nc1ccncc1 [4-Aminopyridine],93.6 ± 7.2
20,C[N+]1(C)CCC(OC(=O)C(c2ccccc2)c2ccccc2)CC1.[I-] [4-DAMP methiodide],84.9 ± 19.8
21,COc1cc(CC(=O)O)ccc1O [4-Hydroxy-3-methoxyphenylacetic acid],94.9 ± 9.6
22,NNC(=O)c1ccc(O)cc1 [4-Hydroxybenzhydrazide],105.3 ± 8.4

row,SMILES,% 25 nM CA200645 binding [%]
1,Cl.NCCc1ccc(O)cc1 [4-Hydroxyphenethylamine hydrochloride],98.7 ± 19.0
2,Cl.OCc1c[nH]cn1 [4-Imidazolemethanol hydrochloride],101.5 ± 8.2
3,Cc1cn[nH]c1.Cl [4-Methylpyrazole hydrochloride],102.3 ± 3.8
4,"CC1(C)CCC=[N+]1[O-] [5,5-Dimethyl-1-pyrroline-N-oxide]",106.0 ± 5.3
5,"O=C1NC(=O)C(c2ccccc2)(c2ccccc2)N1 [5,5-Diphenylhydantoin]",95.9 ± 12.2
6,"O=C(O)c1cc(=O)c2c(Cl)cc(Cl)cc2[nH]1 [5,7-Dichlorokynurenic acid]",100.9 ± 8.8
7,"CN(C)c1nc(N)c(C(=O)NC(=N)N)nc1Cl [5-(N,N-Dimethyl)amiloride hydrochloride]",95.5 ± 2.7
8,"N=C(N)NC(=O)c1nc(Cl)c(N2CCCCCC2)nc1N [5-(N,N-hexamethylene)amiloride]",87.5 ± 4.4
9,CCN(c1nc(N)c(C(=O)NC(=N)N)nc1Cl)C(C)C [5-(N-Ethyl-N-isopropyl)amiloride],94.1 ± 7.3
10,Cl.NCCCCC(=O)O [5-Aminovaleric acid hydrochloride],97.9 ± 5.1
11,O=c1[nH]c(=O)n([C@H]2C[C@H](O)[C@@H](CO)O2)cc1Br [5-Bromo-2'-deoxyuridine],101.6 ± 8.3
12,NCCc1c[nH]c2ccc(C(N)=O)cc12.O=C(O)/C=C\C(=O)O [5-Carboxamidotryptamine maleate],85.7 ± 14.5
13,O=C(O)c1cc2cc(F)ccc2[nH]1 [5-Fluoroindole-2-carboxylic acid],92.5 ± 8.9
14,O=c1[nH]cc(F)c(=O)[nH]1 [5-Fluorouracil],98.8 ± 8.7
15,N[C@@H](Cc1c[nH]c2ccc(O)cc12)C(=O)O [5-Hydroxy-L-tryptophan],97.7 ± 1.5
16,O=C(O)Cc1c[nH]c2ccc(O)cc12 [5-Hydroxyindolacetic acid],102.3 ± 8.2
17,Nc1ncn([C@@H]2O[C@H](CO)[C@@H](O)[C@H]2O)c(=O)n1 [5-azacytidine],92.0 ± 10.7
18,C[C@H]1O[C@@H](n2cc(F)c(=O)[nH]c2=O)[C@H](O)[C@@H]1O [5-fluoro-5'-deoxyuridine],95.4 ± 4.3
19,CC(C)c1cccc(C(C)C)c1N1C(=O)c2ccc(O)cc2C1=O [5HPP-33],91.1 ± 9.2
20,CC(=O)[C@H]1CC[C@H]2[C@@H]3CC[C@H]4C[C@H](O)CC[C@]4(C)[C@H]3CC[C@]12C [5alpha-Pregnan-3alpha-ol-20-one],85.2 ± 19.4
21,O=c1[nH]c2ccccc2c2ccccc12 [6(5H)-Phenanthridinone],41.6 ± 14.1
22,"Br.NC1CCc2cc(O)c(O)cc2C1 (stereo not drawn) [6,7-ADTN hydrobromide]",100.4 ± 8.1

row,SMILES,% 25 nM CA200645 binding [%]
1,NCCCCCC(=O)O [6-Aminohexanoic acid],109.0 ± 9.6
2,COc1cc2c(CCNC(C)=O)c[nH]c2cc1Cl [6-Chloromelatonin],92.8 ± 24.3
3,Cl.NCC(O)c1cc(O)c(O)cc1F (stereo not drawn) [6-Fluoronorepinephrine hydrochloride],77.6 ± 28.4
4,COc1cc2c(CCNC(C)=O)c[nH]c2cc1O [6-Hydroxymelatonin],94.1 ± 9.8
5,"O=Nc1ccc2oc(=O)ccc2c1 [6-Nitroso-1,2-benzopyrone]",107.9 ± 12.7
6,"CCCCCCCCCCC/C=C\C(C)(C)/C=C\CCCC(=O)O [7,7-Dimethyl-(5Z,8Z)-eicosadienoic acid]",100.3 ± 12.4
7,"O.O=c1cc(-c2ccccc2)oc2c(O)c(O)ccc12 [7,8-Dihydroxyflavone hydrate]",68.2 ± 13.0
8,O=[N+]([O-])c1cccc2cn[nH]c12 [7-Nitroindazole],126.0 ± 15.1
9,Cn1c(=O)c2c(nc(C=Cc3cccc(Cl)c3)n2C)n(C)c1=O [8-(3-Chlorostyryl)caffeine],79.6 ± 7.9
10,Cn1c(=O)c2[nH]c(-c3ccc(S(=O)(=O)O)cc3)nc2n(C)c1=O [8-(p-Sulfophenyl)theophylline],97.2 ± 13.7
11,Nc1nc2c(nc(Br)n2[C@@H]2O[C@@H]3COP(=O)([O-])O[C@H]3[C@H]2O)c(=O)[nH]1.[Na+] [8-Bromo-cGMP sodium],102.4 ± 7.4
12,"Cn1c(=O)c2[nH]c(C3CCCC3)nc2n(C)c1=O [8-Cyclopentyl-1,3-dimethylxanthine]",96.1 ± 9.6
13,Nc1ncnc2c1ncn2C1CCCC1 [9-cyclopentyladenine],102.2 ± 2.7
14,CC1=C(/C=C/C(C)=C/C=C/C(C)=C\C(=O)O)C(C)(C)CCC1 [13-cis-retinoic acid],85.2 ± 2.9
15,CC(C)C[C@H]1C(=O)N2CCC[C@H]2[C@]2(O)O[C@](NC(=O)[C@@H]3C=C4c5cccc6[nH]c(Br)c(c56)C[C@H]4N(C)C3)(C(C)C)C(=O)N12.CS(=O)(=O)O [(+)-Bromocriptine methanesulfonate],60.6 ± 9.2
16,CN(C)CC[C@@H](c1ccc(Br)cc1)c1ccccn1 [(+)-Brompheniramine maleate],97.2 ± 7.4
17,CC(C)(C)[C@]1(O)CCN2C[C@H]3c4ccccc4CCc4cccc(c43)[C@@H]2C1 [(+)-Butaclamol hydrochloride],98.6 ± 1.9
18,CN(C)CC[C@@H](c1ccc(Cl)cc1)c1ccccn1 [(+)-Chlorpheniramine maleate],96.8 ± 6.2
19,N[C@@H](Cn1oc(=O)[nH]c1=O)C(=O)O [(+)-Quisqualic acid],106.4 ± 10.3
20,"C[N+]1(C)CCc2cc3c(cc2[C@H]1[C@@H]1OC(=O)c2c1ccc1c2OCO1)OCO3.[Br-] [(-)-Bicuculline methbromide, 1(S), 9(R)]",67.4 ± 5.9
21,CN1C(=O)CC[C@H]1c1cccnc1 [(-)-Cotinine],106.5 ± 4.3
22,CNC[C@H](O)c1ccc(O)c(O)c1 [(-)-Epinephrine bitartrate],100.5 ± 6.3

# Same assay, conditions: % of control wells (1% DMSO and 25 nM CA200645); compounds at 10 µM; whole live cells expressing A3AR; mean ± SD, three experiments in duplicate
row,SMILES,% 25 nM CA200645 binding [%]
1,"CN1[C@@H]2CC[C@H]1C[C@@H](OC(=O)c1cc(Cl)cc(Cl)c1)C2 [3-Tropanyl-3,5-dichlorobenzoate]",96.9 ± 4.1

# Same assay, conditions: % of control wells (1% DMSO and 25 nM CA200645); compounds at 10 µM; whole live cells expressing the A3AR; mean ± SD, three experiments in duplicate
row,SMILES,% 25 nM CA200645 binding [%]
1,N=C(N)c1ccc(N)cc1 [4-Aminobenzamidine dihydrochloride],97.4 ± 8.5

# Same assay, conditions: compounds tested at 10 µM; % of control wells (1% DMSO and 25 nM CA200645); […]; mean ± SD, three experiments in duplicate
row,SMILES,% 25 nM CA200645 binding [%]
1,NC(=O)c1cccc(N)c1 [3-aminobenzamide],91.6 ± 2.5
